Experiments:
[1] = test system: Rat secreted gastric acid; test: Antiulcer effect: rat secreted gastric acid inhibiting effect (pylorus ligature); assay type: in vivo, Male wistar strain rats; settings: 100 μg/kg, s.c., immediately after pylorus ligature; for Inhibition percentage: gastric acid vs. control group; for Amount of gastric acid secreted: gastric juice sampled after 4 hours, solvent 73.6 ± 4.3
Experimental: Male wistar strain rats (weighing 250-280 g) were fasted for 18 hours and subjected to peritoneotomy under ether anesthesia for ligature of pylorus, and after 4 hours under abstinence from food and water, gastric juice was sampled. The gastric juice was centrifuged at 3000 rpm for 10 minutes, and then the amount, pH and acidity of the gastric juice were measured. The acidity was measured by titration bymeans of an automatic titrating device (produced by Toa Denpa Kogyo) with a 0.1 N NaOH to pH 7.0 and calculated according to the following formula: [formula]
The gastric juice secretion inhibition percentage was calculated according to the following formula: [formula] A: Amount of gastric acid excreted in Control group B: Amount of gastric acid excreted in Drug group.
The drugs to be tested were administrated subcutaneously immediately after pylorus ligature.

[2] = test system: Human platelet aggregation; test: Platelet aggregation inhibiting effect (human platelet rich plasma, ADP induced, in vitro); assay type: cell-based; settings: 1 min, human PRP, ADP 2 to 10 μM, 37° C., one minute incubation, read-out: Platelet aggregation inhibiting ratio (IC50)
Experimental: Bloods were sampled from healthy male adults (22 to 34 years old) with no administration of drug for 2 weeks or more early in the morning when they were hungry. By use of an injector filled with a 3.8% sodium citrate solution, 50 ml of blood was sampled, immediately stirred by turning upside down and centrifuged at 200 G for 15 minutes. The supernatant was separated as the PRP (platelet rich plasma) and the residue was further subjected to centrifugation at 2000 G for 15 minutes, followed by recovery of the supernatant as PPP (poor platelet plasma) which ws provided for use in the experiment. 250 μl of PRP was placed in a cuvette, 5 μl of an 1% aqueous ethanol solution of the compound of the present invention or an 1% acqueous ethanol solution was added, and incubation was carried out at 37° C. for one minute. Then, an aggregation inducing agent (ADP) was added and the process of aggregation was recorded by Aggregometer (produced by Sienco Co.). As the concentration of ADP, the minimum concentrations of ADP (2 to 10 μM) to give the maximum aggregation for respective platelets were employed. The inhibition percentage of platelet aggregation was calculated by the following formula:
Inhibition percentage=(A-B/A)×100
A: Maximum aggregation ratio during addition of solvent ([…] aqueous ethanol solution)
B: Maximum aggregation ratio during addition of the compound of the present invention.
The platelet aggregation inhibiting effects of the compounds of the present invention are shown in terms of IC50 values in Table 1.

| SMILES | IC50 [2] [nM] | Inhibition percentage [1] [%] | Amount of gastric acid secreted [1] [mEq/l] |
| --- | --- | --- | --- |
| O=C(O)COCCC1=C[C@H]2C[C@@H](O)[C@H](C#CC(O)C3CCCCC3)[C@H]2C1 (stereo partly shown) [drawing 52] |  | 0 | 84.9 ± 10.8 |
| O=C(O)CCC=CC1=C[C@H]2C[C@@H](O)[C@H](C#CC(O)C3CCCCC3)[C@H]2C1 (stereo partly shown) [drawing 50] |  | 7.1 | 68.4 ± 10.1 |

The next lines start with results.

| IC50 [2] [nM] | SMILES | Inhibition percentage [1] [%] | Amount of gastric acid secreted [1] [mEq/l] |
| --- | --- | --- | --- |
| 12 | O=C(O)CCC/C=C1\C[C@H]2C[C@@H](O)[C@H](/C=C/[C@@H](O)C3CCCC3)[C@H]2C1 [OP-41483, reference compound] |  |  |
| 10 | O=C(O)CCC=CC1=C[C@H]2C[C@@H](O)[C@H](C#CC(O)C3CCCCC3)[C@H]2C1 (stereo partly shown) [drawing 46] |  |  |
| 4.5 | O=C(O)COCCC1=C[C@H]2C[C@@H](O)[C@H](C#CC(O)C3CCCCC3)[C@H]2C1 (stereo partly shown) [drawing 48] |  |  |

— US4839388A, “Prostacyclins and pharmaceuticals containing the same” (Mitsubishi Chemical Industries Limited, priority 1985, dated 1989)
